Experimental data taken from patent US20070117770A1, “Human ribosomal DNA (rDNA) and ribosomal RNA (rRNA) nucleic acids and uses thereof” (Cylene Pharmaceuticals, Inc., priority 2005, published 2007).

How the values were obtained:
PKBα(h) = PKBα(h) (Homo sapiens, UniProt P31749); test: Protein kinase inhibition assay; format: biochemical; conditions: read-out: percent residual activity of PKBα(h)
Description: (§1) Certain compounds were tested for activity in protein kinase inhibition assays. All substrates were dissolved and diluted to working stocks in de-ionized water, apart from histone H1 (10× working stock in 20 mM MOPS pH 7.0), PDKtide (10× working stock in 50 mM Tris pH 7.0) ATF2 (which is typically stored at a 20× working stock in 50 mM Tris pH 7.5, 150 mM NaCl, 0.1 mM EGTA, 0.03% Brij-35, 50% glycerol, 1 mM benzamidine, 0.2 mM PMSF and 0.1% R-mercaptoethanol), KKLNRTLSFAEPG (SEQ ID NO:203) and RRRLSFAEPG (SEQ ID NO:204) (50 mM HEPES pH 7.4) and GGEEEEYFELVKKKK (SEQ ID NO:205) (20 mM MOPS pH 7.0). All kinases were pre-diluted to a 10× working concentration prior to addition into the assay. The composition of the dilution buffer for each kinase is detailed below.
(§2) In a final reaction volume of 25 μl, PKBα (h) (5-10 mU) is incubated with 8 mM MOPS pH 7.0, 0.2 mM EDTA, 30 μM GRPRTSSFAEGKK (SEQ ID NO:232), 10 mM MgAcetate and [gamma-33P-ATP] (specific activity approx. 500 cpm/pmol, concentration as required). The reaction is initiated by the addition of the MgATP mix. After incubation for 40 minutes at room temperature, the reaction is stopped by the addition of 5 μl of a 3% phosphoric acid solution. 10 μl of the reaction is then spotted onto a P30 filtermat and washed three times for 5 minutes in 75 mM phosphoric acid and once in methanol prior to drying and scintillation counting.

[1] = target: T1, nucleolin/HP pre-rRNA region (Homo sapiens, UniProt P19338); test: EMSA, nucleolin/HP ligand interaction; format: binding; conditions: nucleolin ~250 nM, 32P-labeled ligand 10 or 250 nM, 30 minutes (FIG. 1, FIG. 2)
T1 construct: without the N-terminal acidic stretches domain
Description: The following assays assessed effects of compounds on interactions between nucleolin and nucleic acid ligands capable of forming quadruplex (QP) and hairpin (HP) secondary structures. Nucleic acid ligands tested were a cMyc QP DNA having nucleotide sequence 5′-[…]-3′ (SEQ ID NO: 176) and a HP pre-rRNA region to which nucleolin binds, having the sequence 5′-[…]-3′ (SEQ ID NO: 177). In the assays, recombinant nucleolin (˜250 nM), which was fused to maltose binding protein and had the sequence under accession number NM_005381 without the N-terminal acidic stretches domain, was incubated with each of the two ^32P-labeled nucleic acid ligands (10 or 250 nM). Nucleolin and the nucleic acid ligand were incubated in the presence or absence of a test compound of Formula A-1, B-1, C-6 or C-7 in an incubation buffer (12.5 mM Tris, pH 7.6, 60 mM KCl, 1 mM MgCl2, 0.1 mM EDTA, 1 mM DTT, 5% glycerol, 0.1 mg/ml BSA) for 30 minutes at room temperature. Structures for A-1 and B-1 are shown above and structures for C-6 and C-7 are shown hereafter: [drawing 17] The resulting complexes were separated on a 6% DNA retardation gel using 0.5× TBE with 20 mM KCl as a running buffer (i.e., electrophoresis mobility shift assay (EMSA)).

MRCKβ(h) = MRCKβ(h) (Homo sapiens, UniProt Q9Y5S2); test: Protein kinase inhibition assay; format: biochemical; conditions: read-out: percent residual activity of MRCKβ(h)
Description: as §1
as §2, with “μl, MRCKβ” for “μl, PKBα”, “EDTA, 100” for “EDTA, 30”, “μM KKRNRTLTV” for “μM GRPRTSSFAEGKK”, “ID NO:219),” for “ID NO:232),”

Fer(h) = Fer(h) (Homo sapiens, UniProt P16591); test: Protein kinase inhibition assay; format: biochemical; conditions: read-out: percent residual activity of Fer(h)
Description: as §1
(§3) In a final reaction volume of 25 μl, Fer (h) (5-10 mU) is incubated with 8 mM MOPS pH 7.0, 0.2 mM EDTA, 1 mM MnCl2, 250 μM KKKSPGEYVNIEFG (SEQ ID NO:207), 10 mM MgAcetate and [gamma-33P-ATP] (specific activity approx. 500 cpm/pmol, concentration as required). The reaction is initiated by the addition of the MgATP mix. After incubation for 40 minutes at room temperature, the reaction is stopped by the addition of 5 μl of a 3% phosphoric acid solution. […]

PKCβII(h) = PKCβII(h) (Homo sapiens, UniProt P05771); test: Protein kinase inhibition assay; format: biochemical; conditions: read-out: percent residual activity of PKCβII(h)
Description: as §1
as §3, with “PKCβII” for “Fer”, “20” for “8”, “HEPES” for “MOPS”, “7.4, 0.03% Triton X-100, […], 0.1 mg/ml phosphatidylserine, 10 μg/ml diacylglycerol, 0.1 mg/ml histone H1,” for “7.0, 0.2 mM EDTA, 1 mM MnCl2, 250 μM KKKSPGEYVNIEFG (SEQ ID NO:207),”

EphB4(h) = EphB4(h) (Homo sapiens, UniProt P54760); test: Protein kinase inhibition assay; format: biochemical; conditions: read-out: percent residual activity of EphB4(h)
Description: as §1
as §2, with “EphB4” for “PKBα”, “10 mM MnCl2, 0.1 mg/ml poly(Glu, Tyr) 4:1,” for “30 μM GRPRTSSFAEGKK (SEQ ID NO:232),”, “Filtermat A” for “P30 filtermat”

T1 sequence (P19338 284-710 limits assumed): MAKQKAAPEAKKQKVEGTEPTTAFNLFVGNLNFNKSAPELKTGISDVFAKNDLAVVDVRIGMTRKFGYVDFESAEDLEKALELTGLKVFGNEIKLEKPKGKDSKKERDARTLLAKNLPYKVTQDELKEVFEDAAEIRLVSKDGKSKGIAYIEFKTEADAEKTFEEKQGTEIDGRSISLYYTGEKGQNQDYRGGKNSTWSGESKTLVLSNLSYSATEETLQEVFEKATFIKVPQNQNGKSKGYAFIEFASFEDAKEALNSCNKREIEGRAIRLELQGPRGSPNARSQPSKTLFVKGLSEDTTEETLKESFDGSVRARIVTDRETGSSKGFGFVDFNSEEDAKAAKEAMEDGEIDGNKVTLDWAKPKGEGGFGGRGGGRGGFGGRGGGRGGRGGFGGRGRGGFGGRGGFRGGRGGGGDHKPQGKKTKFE
Chain of Fer(h) (P16591 whole entry): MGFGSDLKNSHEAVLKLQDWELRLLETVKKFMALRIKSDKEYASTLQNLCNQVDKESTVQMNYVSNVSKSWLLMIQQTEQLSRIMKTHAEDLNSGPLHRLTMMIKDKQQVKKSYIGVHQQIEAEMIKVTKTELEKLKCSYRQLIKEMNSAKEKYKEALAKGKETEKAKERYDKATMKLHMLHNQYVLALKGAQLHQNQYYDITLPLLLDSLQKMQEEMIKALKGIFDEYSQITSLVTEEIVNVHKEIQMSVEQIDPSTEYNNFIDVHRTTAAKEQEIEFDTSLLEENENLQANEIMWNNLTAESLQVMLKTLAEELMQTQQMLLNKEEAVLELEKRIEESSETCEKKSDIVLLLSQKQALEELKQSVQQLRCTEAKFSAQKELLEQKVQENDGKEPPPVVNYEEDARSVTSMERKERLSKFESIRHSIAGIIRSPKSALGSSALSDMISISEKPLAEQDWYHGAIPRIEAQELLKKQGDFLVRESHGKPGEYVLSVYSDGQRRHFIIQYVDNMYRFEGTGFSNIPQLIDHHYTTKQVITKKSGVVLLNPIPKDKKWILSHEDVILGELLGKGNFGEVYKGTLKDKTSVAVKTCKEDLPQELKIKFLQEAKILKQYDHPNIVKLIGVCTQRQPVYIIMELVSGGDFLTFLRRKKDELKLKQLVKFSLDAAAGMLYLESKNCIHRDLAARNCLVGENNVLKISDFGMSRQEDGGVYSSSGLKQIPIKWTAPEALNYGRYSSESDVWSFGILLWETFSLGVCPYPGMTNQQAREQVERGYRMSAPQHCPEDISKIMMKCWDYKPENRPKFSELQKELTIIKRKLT
Chain of MRCKβ(h) (Q9Y5S2 whole entry): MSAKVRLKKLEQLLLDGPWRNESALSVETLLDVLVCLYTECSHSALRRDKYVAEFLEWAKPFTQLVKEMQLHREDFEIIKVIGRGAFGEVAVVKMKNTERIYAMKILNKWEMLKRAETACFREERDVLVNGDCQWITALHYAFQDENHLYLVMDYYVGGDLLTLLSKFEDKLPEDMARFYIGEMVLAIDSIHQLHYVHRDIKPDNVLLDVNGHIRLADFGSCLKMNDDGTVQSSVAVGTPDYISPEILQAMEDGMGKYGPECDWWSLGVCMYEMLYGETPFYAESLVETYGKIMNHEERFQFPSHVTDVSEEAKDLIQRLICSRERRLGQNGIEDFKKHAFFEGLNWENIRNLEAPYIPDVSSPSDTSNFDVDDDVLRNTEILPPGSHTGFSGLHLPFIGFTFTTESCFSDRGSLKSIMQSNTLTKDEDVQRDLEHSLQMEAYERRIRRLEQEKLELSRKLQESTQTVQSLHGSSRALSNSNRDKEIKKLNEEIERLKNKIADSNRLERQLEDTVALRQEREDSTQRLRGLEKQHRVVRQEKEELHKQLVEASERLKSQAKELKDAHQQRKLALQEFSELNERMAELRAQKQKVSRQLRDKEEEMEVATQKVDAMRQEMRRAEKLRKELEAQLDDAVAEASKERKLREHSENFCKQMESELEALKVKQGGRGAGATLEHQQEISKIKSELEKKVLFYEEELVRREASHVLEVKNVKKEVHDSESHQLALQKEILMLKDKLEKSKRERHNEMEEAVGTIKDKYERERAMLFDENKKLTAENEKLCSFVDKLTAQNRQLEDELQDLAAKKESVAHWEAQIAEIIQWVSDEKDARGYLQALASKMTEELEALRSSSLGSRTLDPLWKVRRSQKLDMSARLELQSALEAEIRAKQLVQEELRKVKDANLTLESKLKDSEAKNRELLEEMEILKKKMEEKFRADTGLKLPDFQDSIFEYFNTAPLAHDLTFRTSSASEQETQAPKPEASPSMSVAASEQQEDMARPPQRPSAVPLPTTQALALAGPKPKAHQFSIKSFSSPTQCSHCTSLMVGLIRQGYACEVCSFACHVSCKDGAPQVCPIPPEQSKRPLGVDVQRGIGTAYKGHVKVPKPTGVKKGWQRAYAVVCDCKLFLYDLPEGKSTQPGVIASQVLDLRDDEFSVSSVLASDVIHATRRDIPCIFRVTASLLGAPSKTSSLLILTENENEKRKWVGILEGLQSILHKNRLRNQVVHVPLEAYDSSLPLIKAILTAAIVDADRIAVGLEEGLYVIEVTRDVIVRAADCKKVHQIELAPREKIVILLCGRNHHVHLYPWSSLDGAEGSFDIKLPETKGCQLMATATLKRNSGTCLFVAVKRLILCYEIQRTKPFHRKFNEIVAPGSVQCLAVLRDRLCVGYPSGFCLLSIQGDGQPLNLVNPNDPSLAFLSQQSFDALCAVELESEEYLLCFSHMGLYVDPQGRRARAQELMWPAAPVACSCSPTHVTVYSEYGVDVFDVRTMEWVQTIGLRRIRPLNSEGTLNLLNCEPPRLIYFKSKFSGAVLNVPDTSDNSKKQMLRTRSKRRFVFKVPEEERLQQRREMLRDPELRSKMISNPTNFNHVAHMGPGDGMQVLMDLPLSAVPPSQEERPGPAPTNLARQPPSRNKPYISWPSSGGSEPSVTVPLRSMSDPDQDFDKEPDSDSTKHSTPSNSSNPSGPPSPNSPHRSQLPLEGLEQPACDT
Chain of PKBα(h) (P31749 whole entry): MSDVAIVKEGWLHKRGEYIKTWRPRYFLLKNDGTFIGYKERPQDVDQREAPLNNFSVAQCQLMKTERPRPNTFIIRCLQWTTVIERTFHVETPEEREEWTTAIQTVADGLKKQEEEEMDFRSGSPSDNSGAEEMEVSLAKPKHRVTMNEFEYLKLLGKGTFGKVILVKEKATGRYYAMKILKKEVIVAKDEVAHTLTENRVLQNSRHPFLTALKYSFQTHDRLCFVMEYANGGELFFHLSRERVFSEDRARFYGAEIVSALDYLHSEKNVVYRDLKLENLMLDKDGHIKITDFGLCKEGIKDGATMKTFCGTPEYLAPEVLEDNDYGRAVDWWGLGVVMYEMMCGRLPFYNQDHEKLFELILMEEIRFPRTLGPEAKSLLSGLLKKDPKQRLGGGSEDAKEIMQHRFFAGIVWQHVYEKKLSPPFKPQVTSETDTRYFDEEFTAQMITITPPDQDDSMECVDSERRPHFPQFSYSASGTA
Chain of EphB4(h) (P54760 16-987): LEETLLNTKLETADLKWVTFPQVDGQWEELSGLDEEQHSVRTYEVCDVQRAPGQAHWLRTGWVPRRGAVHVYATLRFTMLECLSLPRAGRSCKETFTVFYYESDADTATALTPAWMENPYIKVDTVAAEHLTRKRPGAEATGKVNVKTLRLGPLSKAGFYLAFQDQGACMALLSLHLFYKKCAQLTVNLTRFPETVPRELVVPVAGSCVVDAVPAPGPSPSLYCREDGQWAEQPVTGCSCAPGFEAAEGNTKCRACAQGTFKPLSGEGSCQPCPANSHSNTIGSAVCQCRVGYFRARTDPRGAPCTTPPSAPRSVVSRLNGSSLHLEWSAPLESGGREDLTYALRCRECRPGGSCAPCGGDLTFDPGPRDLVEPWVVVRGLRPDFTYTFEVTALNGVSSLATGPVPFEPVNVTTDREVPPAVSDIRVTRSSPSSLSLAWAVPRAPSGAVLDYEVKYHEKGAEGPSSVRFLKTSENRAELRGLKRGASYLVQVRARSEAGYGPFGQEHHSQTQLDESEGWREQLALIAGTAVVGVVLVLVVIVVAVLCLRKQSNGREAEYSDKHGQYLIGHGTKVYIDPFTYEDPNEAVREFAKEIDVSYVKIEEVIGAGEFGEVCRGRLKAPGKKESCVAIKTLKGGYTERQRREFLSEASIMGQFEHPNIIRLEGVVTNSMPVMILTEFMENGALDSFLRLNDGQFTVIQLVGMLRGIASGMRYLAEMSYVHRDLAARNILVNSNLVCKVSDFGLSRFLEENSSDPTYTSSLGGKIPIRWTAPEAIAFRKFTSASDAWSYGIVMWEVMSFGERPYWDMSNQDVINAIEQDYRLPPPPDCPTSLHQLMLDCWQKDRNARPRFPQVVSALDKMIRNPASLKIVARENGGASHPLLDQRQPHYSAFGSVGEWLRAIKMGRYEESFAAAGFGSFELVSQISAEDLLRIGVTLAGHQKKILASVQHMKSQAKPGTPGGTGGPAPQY
Chain of PKCβII(h) (P05771 1-673 isoform P05771-2): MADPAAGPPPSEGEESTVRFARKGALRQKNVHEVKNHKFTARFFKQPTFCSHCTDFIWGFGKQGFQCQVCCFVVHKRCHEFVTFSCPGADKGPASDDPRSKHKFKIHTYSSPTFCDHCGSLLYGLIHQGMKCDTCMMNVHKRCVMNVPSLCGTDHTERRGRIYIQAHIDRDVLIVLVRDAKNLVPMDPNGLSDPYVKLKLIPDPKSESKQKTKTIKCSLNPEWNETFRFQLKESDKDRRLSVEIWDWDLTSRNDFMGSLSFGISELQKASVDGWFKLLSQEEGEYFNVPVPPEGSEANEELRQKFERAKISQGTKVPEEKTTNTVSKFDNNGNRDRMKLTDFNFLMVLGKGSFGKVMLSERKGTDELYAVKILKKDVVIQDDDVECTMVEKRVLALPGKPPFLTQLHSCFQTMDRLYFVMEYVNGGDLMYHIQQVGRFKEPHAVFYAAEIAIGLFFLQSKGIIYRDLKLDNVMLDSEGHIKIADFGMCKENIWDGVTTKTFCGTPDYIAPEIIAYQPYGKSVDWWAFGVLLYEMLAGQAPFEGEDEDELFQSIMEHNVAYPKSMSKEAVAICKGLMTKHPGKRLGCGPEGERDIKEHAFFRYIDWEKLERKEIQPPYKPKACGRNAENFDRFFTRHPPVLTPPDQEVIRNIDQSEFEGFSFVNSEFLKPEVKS

| remaining activity at 2.5 µM (PKBα(h)) [%] | remaining activity at 2.5 µM (MRCKβ(h)) [%] | remaining activity at 2.5 µM (Fer(h)) [%] | remaining activity at 2.5 µM (PKCβII(h)) [%] | remaining activity at 2.5 µM (EphB4(h)) [%] | Structure (SMILES) | interference with the nucleolin/HP ligand interaction [1] |
| --- | --- | --- | --- | --- | --- | --- |
| 91 | 84 | 84 | 94 | 96 | CN1CCCC1CCNC(=O)c1cn2c3c(c(N4CCC(c5cnccn5)C4)c(F)cc3c1=O)Oc1cc3ccccc3cc1-2 (stereo not drawn) [Compound A-1] | did not significantly interfere with the nucleolin/HP ligand interaction |
| 103 | 102 | 94 | 99 | 108 | CC(=O)N1CCN(c2ccc3c(=O)c(C(=O)NCCN4CCCC4)c4n(C)c5ccccc5n4c3n2)CC1 [Compound B-1] | did not significantly interfere with the nucleolin/HP interaction |
